One data set concerns H1299 cancer cells. Description: Apoptosis assay. In kind it is cell-based, human. The conditions noted are these: 48 h. The text has this:
[Worded in the source for another cell line; used here, by the source, with some conditions changed.] (§1) In A549, analogue 3a induced 8.2 and 11.2% apoptosis, analogue 3c induced 13.4 and 17.2% apoptosis, and analogue 3e induced 10.6 to 19.5% apoptosis compared to 4.7% in control cells (FIG. 6A).

Data set [1] has as its system A549. Description: Apoptosis assay. In kind it is cell-based, human. The conditions noted are these: 48 h, control cells 4.7%.
From the text: as §1

The test system of data set [2] is A549. Description: Cell cycle distribution, propidium iodide flow cytometry. The conditions noted are these: 48 h. In kind it is cell-based, human. Here is the method:
To examine the effect of Fisetin analogues on cell cycle regulation, cells were treated with different concentrations of Fisetin analogues (5, 10 & 20 μM) for 48 h, then stained with propidium iodide and subjected to flow cytometry. All three of the tested Fisetin analogues induced G2/M phase cell cycle arrest in A549 (FIGS. 5A-5C) and H1299 human lung cancer cells (FIGS. 5D-5F).
(Flow cytometry measures light scatter and fluorescence of single cells or particles in a stream.)

A short description of data set [3]: Acute toxicity, fed orally for two weeks. The settings on record: Fisetin 50 mg/kg, 3c 25 and 50 mg/kg body weight. In kind it is in vivo. As for the experimental part:
Fisetin analogue 3c was used to assess the potential toxicity of these analogues in a pre-clinical model. To test the acute toxicity, Fisetin (50 mg/kg body weight), analogue 3c (25 mg/kg and 50 mg/kg body weight), and vehicle control (5% DMSO, 45% PEG-300 and 50% saline) was fed orally for two weeks. Abnormal clinical signs such as decreased motor activity, sensory reflection, body weight, food intake, and water intake were monitored during the treatment period. An increase in body weight was observed among all groups throughout the treatment period (FIG. 7A). […] This variation could be due to consistent frequency of dosage.

The next data set concerns SOD. In words: Hepatotoxicity: specific activity of SOD. It counts as in vivo, swiss albino mice. The conditions noted are these: liver of treated mice. Here is the method:
Hepatotoxicity is considered to be one of the major challenges for drug development schemes. The liver is the primary organ for the metabolism or biotransformation of a given drug. To assess the hepatotoxicity of these compounds, the effects of Fisetin and analogue 3c on various hepatic enzymes was assessed.
A lipid peroxidation assay was performed on microsomal liver fraction and determined in terms of TBARS formation. […] The modulatory effects of Fisetin and analogue 3c were determined on the specific activities of cytochrome b5 reductase (Cytb5R) and cytochrome P450 reductase (CytP450R), phase I enzyme of xenobiotic metabolism. Fisetin and analogue 3c caused reduction in the specific activity of cytochrome b5 reductase. Fisetin decreased Cytb5R specific activity by 66% whereas analogue 3c (50 mg/kg) caused a 36% reduction in specific activity (FIG. 7F). An increase in specific activity of CytP450R by Fisetin and analogue 3c was observed. Fisetin and analogue 3c (50 mg/kg) increased the specific activity by 15% and 13%, respectively (FIG. 7G). Next, the specific activities of phase II enzymes, glutathione S-transferase (GST) and reduced glutathione (GSH) were measured. […] Fisetin and analogue 3c (50 mg/kg) caused a decrease in specific activity of GSH by 34% and 7%, respectively (FIG. 7I). […] These analogues are therefore likely to be effective and safe phytochemicals.

The next data set relates to A549 cells. In words: Western blot of signalling, cell cycle and apoptosis markers. The settings on record: IC50 concentration and 20 μM. It counts as cell-based, human. The text has this: Similarly, in H1299 cells analogue 3a induced a 11.7 to 14.9% cell death (FIG. 4D right) compared to 3.8% in control cells. Analogue 3c (FIG. 4E right) and analogue 3e (FIG. 4F right) induced cell death of 8.2 to 15.1% and 8.8 to 16.6% respectively. For western blot experiments, two concentrations were used, i.e. the IC50 concentration and the next higher concentration utilized for cell proliferation for each cell line.
The expression of pro-oncogenic signalling molecules, which are involved in proliferation and survival of cancer cells, were evaluated.
The effect of the Fisetin analogues on molecular markers of apoptosis was assessed.
(A western blot detects proteins with antibodies after separation by electrophoresis.)

The results in this text go back to patent US12715851B2, “4′-substituted analogues of fisetin and their use in the treatment of cancer” (Stellenbosch University, priority 2020, dated 2026).

“Also recorded” adds a separate entry of the source.

In the case of `O=c1c(O)c(-c2ccc(Br)cc2)oc2cc(O)ccc12` [analogue 3c, 4′-Bromo-3,7-dihydroxyflavone], the apoptosis in the data set with H1299 cancer cells (IC50 concentration) was determined as 13.4%. Further, the apoptosis in the data set with H1299 cancer cells (higher concentration 10 μM) worked out at 17.2%. The apoptosis with A549 [1] (IC50 concentration) was found to be 13.4%. In addition, the apoptosis with A549 [1] (higher concentration 20 μM) was determined as 17.2%. In the data set on A549 [2] (5 μM), the G2/M phase arrest result is recorded as “induced cell cycle arrest”. In addition, the G2/M phase arrest result in the data set on A549 [2] (10 & 20 μM) is reported as “induced G2/M phase arrest in both the cell lines significantly”. Further, in data set [3], the “toxicity in mice, in words” value is “well tolerated in animal models; also recorded: does not show toxicity; also recorded: did not cause toxicity”. For the same compound, in the data set with SOD, the “specific activity of SOD” value is reported as “moderately induced”. Further, in the data set on A549 cells, the “cleaved caspase-3” value was “IC50 concentration of analogue 3c also increased cleaved caspase-3 to a significant amount; also recorded: higher concentration of analogue 3c and both the concentrations of analogue 3e increased the cleaved caspase-3 marginally”; the “expression of p21” value was “increased the p21 expression significantly at higher concentration”; the “expression of phospho Cdc-2” value is given as “IC50 concentration decreased the expression to some extent; also recorded: the higher concentrations decreased the phospho-Cdc-2 expression significantly”; the “expression of phospho-EGFR” value is reported as “minimally affected except for higher concentration of analogue 3c”. Besides, in the data set with A549 cells, the “expression of phospho-Erk1/2” value is recorded as “decreased the expression of phospho-Erk1/2 significantly at both the concentrations”, the “expression of pro-apoptotic protein Bax” value is on record as “increased the expression of Bax with much higher potential”, the “total Stat-3 expression” value was “not affected” and the “total form of Akt” value is “slightly downregulated”. Besides, the “total form of Erk1/2” value in the data set on A549 cells was “not affected except for 3c in the higher concentration”.
